How the values were obtained:
[1] = tested on: HCC827 and H1650 cells; assay: Cleaved caspase-3 immunoblot in proliferating or palbociclib-treated senescent NSCLC cells treated with PAR1 inhibitors; assay type: cell-based, human; details: for caspase-3 cleavage: HCC827 and H1650, palbociclib (0.5 μM, 7 days)-treated senescent cells, increasing doses of PAR1 inhibitor
Experimental: Because THBD is thought to signal primarily through PAR1, it was first tested whether, like THBD depletion, pharmacological PAR1 inhibition results in senescent cell death. For this, proliferating or palbociclib-treated senescent HCC827 and H1650 cells were treated with increasing doses of vorapaxar or SCH79797 and immunoblotted for cleaved caspase-3.

[2] = tested on: THBD in primary human bronchial epithelial (HBE) cells; assay: Gene expression profiling of erlotinib-induced senescent versus proliferating HBE cells; assay type: cell-based
Source text: Cell Res, 2018. 28(6): p. 625-643; Xiang, H., et al., UHRF1 is required for basal stem cell proliferation in response to airway injury. Cell Discov, 2017. 3: p. […] Cell Res, 2018. 28(6): p. 625-643).

[3] = tested on: NSCLC; details: monotherapy for NSCLC; cited from earlier work
[4] = tested on: MDA-MB-231 cells; assay: Cleaved caspase-3 immunoblot in proliferating and palbociclib-induced senescent MDA-MB-231 cells treated with vorapaxar; assay type: cell-based
Experimental: Proliferating and palbociclib-induced senescent MDA-MB-231 cells were treated with increasing doses of vorapaxar. Following treatment, cells were immunoblotted for cleaved caspase-3.

CC(C)c1ccc(Cn2ccc3c4c(N)nc(NC5CC5)nc4ccc32)cc1 [SCH79797]
caspase-3 cleavage [1]: dose-dependent increase

C#Cc1cccc(Nc2ncnc3cc(OCCOC)c(OCCOC)cc23)c1 [erlotinib]
THBD gene expression in senescent versus proliferating cells [2]: four-fold increase

CC(=O)c1c(C)c2cnc(Nc3ccc(N4CCNCC4)cn3)nc2n(C2CCCC2)c1=O [palbociclib]
adverse side effects [3]: neutropenia and leukopenia

CCOC(=O)N[C@@H]1CC[C@@H]2[C@@H](C1)C[C@H]1C(=O)O[C@H](C)[C@H]1[C@H]2/C=C/c1ccc(-c2cccc(F)c2)cn1 [vorapaxar]
caspase-3 cleavage, senescent cells ([4]; palbociclib-induced senescent MDA-MB-231, increasing doses of vorapaxar (50 nM-1 μM), 24 h): dose-dependent increase
caspase-3 cleavage, proliferating cells ([4]; proliferating MDA-MB-231, increasing doses of vorapaxar): minimal increase
caspase-3 cleavage [1]: dose-dependent increase
lowest dose inducing caspase-3 cleavage ([1]; combined with palbociclib): 25 nM

Reference: patent publication US20210161900A1, “COMPOSITIONS AND METHODS FOR THE TREATMENT OF SENESCENT TUMOR CELLS” (Duke University, priority 2018, published 2021)
